The values below come from US20240148749A1 (priority 2021, published 2024).

Each structure is given as a SMILES string.

The subject of one data set is brain. Nature of the data set: Brain ROS/RNS, antioxidant defense and bioenergetic/mitochondrial parameters at 21 days. In kind it is in vivo, mouse. The source says:
(b) Levels of the central bioenergetic metabolite Acetyl-CoA expressed in nmol/g. Expression of genes coding for PGC-lalpha quantified by RT-qPCR from RNA isolated from brains extracted from control and CLP mice with or without MnTBAP.
Data shown are mean values (±SD). Gray bars represent MnTBAP-treated mice from either CLP or control groups, and black bars represent placebo-treated mice from either CLP or Control groups. Two-way analyses of variance (ANOVAs) (CLP vs Control×MnTBAP vs Placebo) were performed. When a significant interaction was observed, planned comparisons were performed for the CLPI/Placebo group against the three other groups. The significance of the planned comparisons is indicated with asterisks (*p<0.05, **p<0.01, ***p<0.001, ****p<0.0001) .
MnTBAP is commercially available: it is for example manufactured by Sigma-Aldrich, Calbiochem, etc. For use it is dissolved following the guidance provided by the manufacturer.
Total RNA was isolated from cells using the RNAeasy Micro kit (Qiagen), and reverse-transcribed using Superscript® III Reverse transcriptase (Invitrogen). Real-time quantitative PCR was performed in duplicate for each sample using Power Sybr Green PCR Master Mix (Applied Biosystems) and the rate of dye incorporation was monitored using the StepOne™ Plus RealTime PCR system (Applied Biosystems). Data were analyzed by StepOne Plus RT PCR software v2.1 and Microsoft excel. Amplification specificity was assessed with a melting curve analysis. TBP transcript levels were used for normalisation of each target (=ΔCT). Real-time PCR CT values were analyzed using the 2^−(ΔCt) method to calculate the fold expression (Schmittgen et al., 2008). The data are presented as relative mRNA units with respect to control group (expressed as fold over control value). Primer sequences available upon request.
Microglial cells and brain samples were resuspended in lysis buffer (50 mM TrisHCI pH 7.5, 150 mM NaCl, 1% Triton X-100, 0.1% SDS, 1 mM EDTA, and protease inhibitor mixture), mechanically homogenized with a piston, briefly vortexed and incubated for 30 min at 4° C. Lysed samples were briefly centrifuged to remove debris, and the whole supernatant extract was collected. Aliquots of the supernatant were immediately used for the assessment of ROS level, RNS level, dual ROS/RNS level, SOD activity, and Acetyl-Coa level. The protein content was determined with the Bradford reagent (Sigma-Aldrich).
Both ROS and RNS were measured by incubating CellROX (Life Technologies) with 30 μg of freshly extracted total proteins for 45 min at 37° C. in the dark in 96-wells plate in triplicate. Fluorescence intensity was measured using near-infra-red fluorescence setting with the plate reader Odyssey Infrared Imaging system scanner and Odyssey application software v3.0 (LI-COR Biosciences, Lincoln, NE).
SOD activity was measured with Superoxide Dismutase Activity Colorimetric Assay kit (Abcam, ab65354), following the manufacturer's instructions. This measurement assesses SOD-dependent inhibition of superoxide anion reduction. Tests were performed with 30 μg of freshly extracted total proteins, quantified by Bradford assay, or with 10 μl of serum, in triplicate.
Total DNA was prepared using extraction buffer (0.2 mg ml^−1 proteinase K, 0.2% SDS and 5 mM EDTA in PBS) and incubated at 50° C. for 3 h. DNA was precipitated with 3 M sodium acetate (pH 5.2) and isopropanol for 20 min on ice before centrifugation at 8,000 g at 4° C. The DNA pellet was washed and briefly air-dried. qPCR amplification was performed on total DNA using the StepOne Plus RealTime PCR system (Applied Biosystems) and Power Sybr Green PCR Master mix (ABI) following the manufacturer's instruction. A fragment of mitochondrial COI gene, the established marker for mtDNA content in mouse cells, was amplified using the nuclear encoded Ndufv1 gene as endogenous reference. […]

Another data set has as its system CLP mice. In words: Survival after cecal ligation and puncture (CLP) model of sepsis. In kind it is in vivo, mouse. As to conditions: CLP-MnTBAP mice, 24 h after CLP; MnTBAP 10 mg/kg IP every 12 h for 48 h. The procedure: A log-rank (Mantel-Cox) p value for trend was calculated.
We used peritonitis induced by CLP as a model of sepsis (Rittirsch et al., 2009). Briefly, animals were anesthetized with ketamine (Imalgene® 1000 100 mg/kg, Merial, France) and Xylazine (Rompun® 2% 20 mg/kg, Bayer, Germany) prior to surgery. After laparotomy, caecum was ligatured at the distal third with a 4.0 suture and the distal part was perforated twice with a 21 Gauge needle.
For use it is dissolved following the guidance provided by the manufacturer.
Clinical score was assessed 6, 12 and 24 hours and 21 days after CLP using a modified SmithKline Beecham, Harwell, Imperial College and Royal London Hospital phenotype assessment (SHIRPA) (Rogers et al., 1997) of the maximum score of fourteen. Weight, temperature and locomotor activity using an open field box were measured at the same time points. We determined survival rate twice a day for 21 days after CLP. The symptoms included in the a modified SmithKline Beecham, Harwell, Imperial College and Royal London Hospital phenotype assessment (SHIRPA) are tremors, periorbital exudates, piloerection, lethargy, vocalisation, positional passivity, no escapement to threat, long transfer arousal and diarrhoea. Each condition was scored from 0 to 2.
Experimental protocols were conducted in accordance with the French and European regulations on Animal Welfare and with Public Health Service recommendations. The experiments were performed on C57BL/6JRj mice (male and female) purchased from Janvier Laboratory. Mice were housed in cages in groups of 7, in a temperature (22±1.5° C.) and humidity-controlled environment, with a 12 h light/dark cycle. All animals used in the study were between 10 and 12 weeks old. Sample-size estimates for animal experiments were based on prior animal-modelling studies used in the Unit for the investigation of caecal ligation and puncture (CLP).
At the end, two groups were compared: CLP-Placebo, CLP-BMX-010. We determined survival rate twice a day for 4 days after CLP.”

For data set [1] the following is noted: Liu et al., 2013b; cited from earlier work.
Where [2] appears, read: CLP mice + MnTBAP, 21 days after sepsis.
Setting [3] is: CLP mice + MnTBAP, 21 days after sepsis, remained different from Control-Placebo.
The mark [4] stands for this setting: MnTBAP in control mice vs Control-placebo mice.
Where [5] appears, read: MnTBAP in control mice vs Control-placebo mice, p<0.0001.

Turning to `O=C(O)c1ccc(/C2=C3\C=CC(=N3)/C(c3ccc(C(=O)O)cc3)=c3/cc/c4[n]3[Mn]([Cl])[n]3c2ccc3/C(c2ccc(C(=O)O)cc2)=C2/C=CC(=N2)\C=4c2ccc(C(=O)O)cc2)cc1` [MnTBAP, Manganese (III) tetrakis (4-benzoic acid)porphyrin chloride], in the data set on brain (setting [2]), the “brain acetyl-coA levels” value is “strongly decreased” and the “brain mtRNA 16S levels” value is on record as “strongly decreased”. Further, in the data set on brain (setting [3]), the “brain ATP production” value was “significantly increasing”, the “brain ROS/RNS levels” value was “significantly increasing”, the “brain SOD1 expression” value is “significantly increasing” and the “brain SOD activity levels” value is “significantly increasing”. Moreover, the sepsis-induced brain alterations result in the data set on brain (CLP mice, 21 days after sepsis) was “counteracted”. Further, in the data set with brain (setting [4]), the “brain PGC1 alpha expression” value is “did not affect”, the “brain acetyl-coA levels” value was “did not affect” and the brain catalase expression entry was “did not affect”. In the data set on brain (setting [5]), the “brain ATP production” value is “increase”, the “brain NRF2 expression” value is listed as “increase”, the “brain SOD1 expression” value is on record as “increase” and the “brain SOD2 expression” value is reported as “increase”. Moreover, in the data set on brain (setting [5]), the “brain SOD activity” value is “increase” and the “brain mtDNA content” value was “increase”. Also, in the data set on brain (MnTBAP in control mice vs Control-placebo mice, p=0.0005), the “brain mtRNA 16S level” value is reported as “increase”. Moreover, in the data set with brain (MnTBAP in control mice vs Control-placebo mice, p=0.001), the “brain ROS/RNS levels” value was “increase”. Also, the “brain mtRNA CytB level” value with brain (MnTBAP in control mice vs Control-placebo mice, p=0.04) is on record as “increase”. The molecule further came in with a mice alive in the data set with CLP mice of 66%. Besides, in data set [1], the BBB penetration result was “poorly penetrates the BBB”.
